This note sets out measurements from ChEMBL document CHEMBL4421731, “Small molecules inhibiting oncoprotein Myc” (2016).

Active and inactive are the calls of the source. The rule behind the calls is not given here.

Series [1] deals with Myc proto-oncogene protein (Homo sapiens) (UniProt P01106). As to the kind of experiment: Inhibition of C-Myc (unknown origin) expressed in rat Rat1A cells assessed as inhibition of cell growth incubated for 72 hrs by methylene blue staining based assay.
The nature of series [2]: Intrinsic clearance in human liver microsomes at 1 uM in presence of NADPH by LC-MS/MS analysis. The format is ADME, Microsome. (Liver microsomes are a subcellular fraction often used to study metabolism.)
Series [3] addresses T1, N-myc proto-oncogene protein (Homo sapiens) (UniProt P04198).
T1 sequence (whole entry): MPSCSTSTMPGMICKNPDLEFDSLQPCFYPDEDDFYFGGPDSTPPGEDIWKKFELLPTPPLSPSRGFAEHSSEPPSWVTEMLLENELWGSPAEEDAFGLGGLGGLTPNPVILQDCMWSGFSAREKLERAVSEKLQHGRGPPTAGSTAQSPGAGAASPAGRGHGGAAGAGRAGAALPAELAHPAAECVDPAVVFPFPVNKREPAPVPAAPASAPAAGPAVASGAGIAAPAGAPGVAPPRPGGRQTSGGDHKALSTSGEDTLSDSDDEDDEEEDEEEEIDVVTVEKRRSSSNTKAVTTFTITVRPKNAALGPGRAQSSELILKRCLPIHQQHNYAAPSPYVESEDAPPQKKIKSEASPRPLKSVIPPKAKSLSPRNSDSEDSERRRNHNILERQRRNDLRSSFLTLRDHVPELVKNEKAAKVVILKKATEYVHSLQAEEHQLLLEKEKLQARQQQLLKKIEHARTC
As to the kind of experiment: Inhibition of N-Myc (unknown origin) expressed in rat Rat1A cells assessed as inhibition of cell growth incubated for 72 hrs by methylene blue staining based assay.

Series [4] can be described thus: Intrinsic clearance in mouse liver microsomes at 1 uM in presence of NADPH by LC-MS/MS analysis. The format is ADME, Microsome.
In another series the test system is BE(2)-C. The series is described as follows: Growth inhibition of human BE(2)-C cells. The format is functional, cell-based.
A further series relates to IMR-32. As to the kind of experiment: Growth inhibition of human IMR32 cells. The format is functional, cell-based.
Series [5] deals with Myc proto-oncogene protein (Homo sapiens) (UniProt P01106). The series is described as follows: Inhibition of Myc in human melanoma cells assessed as reduction in Myc-transactivated thymidylate synthase gene expression. The format is cell-based.
Series [6] is filed under the species Homo sapiens. As to the kind of experiment: Growth inhibition of human SHEP cells. The format is functional.
The species entered for series [7] is Homo sapiens. The series is described as follows: Growth inhibition of N-Myc amplified human NBL-WN cells. The format is functional.
Series [8] concerns Melanoma cell line. As to the kind of experiment: Growth inhibition of human melanoma (#3) cells. The format is functional, cell-based.
The test system of another series is SH-SY5Y. The series is described as follows: Growth inhibition of human SH-SY5Y cells. The format is functional, cell-based.
The target of series [9] is Myc proto-oncogene protein (Homo sapiens) (UniProt P01106). The series is described as follows: Inhibition of Myc in human melanoma cells assessed as increase in Myc-repressed p27kip1 gene expression. The format is cell-based.
Another series has as its system Melanocyte. The series is described as follows: Growth inhibition of human melanocytes. The format is cell-based.
In series [10] the test system is Melanoma cell line. As to the kind of experiment: Growth inhibition of human melanoma (#10) cells. The format is functional, cell-based.
Series [11] is filed under the species Homo sapiens. As to the kind of experiment: Growth inhibition of N-Myc overexpressing human NBL-S cells. The format is functional.
In a further series the test system is SK-MEL19. As to the kind of experiment: Growth inhibition of human SK-MEL-19 cells. The format is functional, cell-based.
The subject of another series is SK-MEL-103. The series is described as follows: Growth inhibition of human SK-MEL-103 cells. The format is functional, cell-based.
Series [12] in a line: Stability in human liver microsomes assessed as parent compound remaining at 1 uM incubated for 0 mins in presence of NADPH by LC-MS/MS analysis. The format is ADME, Microsome. The note with it: read-out: Stability.
Series [13] can be described thus: Stability in mouse liver microsomes assessed as parent compound remaining at 1 uM incubated for 0 mins in presence of NADPH by LC-MS/MS analysis. The format is ADME, Microsome. The note with it: read-out: Stability.

Myc proto-oncogene protein (Homo sapiens), sequence (P01106 whole entry): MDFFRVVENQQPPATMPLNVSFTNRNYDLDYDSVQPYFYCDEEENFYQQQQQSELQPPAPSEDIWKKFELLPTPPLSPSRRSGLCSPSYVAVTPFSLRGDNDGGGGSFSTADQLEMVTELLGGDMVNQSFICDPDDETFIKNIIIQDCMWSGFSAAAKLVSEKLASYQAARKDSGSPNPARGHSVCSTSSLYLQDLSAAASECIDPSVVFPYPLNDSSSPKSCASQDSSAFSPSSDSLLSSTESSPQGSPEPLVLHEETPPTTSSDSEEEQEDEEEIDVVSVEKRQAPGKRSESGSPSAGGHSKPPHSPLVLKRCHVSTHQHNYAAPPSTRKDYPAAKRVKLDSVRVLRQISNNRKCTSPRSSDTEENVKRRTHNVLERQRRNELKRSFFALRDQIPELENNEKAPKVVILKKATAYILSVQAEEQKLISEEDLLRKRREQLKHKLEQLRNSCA

`CCN(CC)c1ccc(/C=N\NC(=O)c2nnn(-c3nonc3N)c2CN2CCCCCC2)c(O)c1`: the inhibition result in [1] and in [3] was “Active” each time. Moreover, the intrinsic clearance in series [2] came out at 87 µL/min/mg; in series [4] it was 690 µL/min/mg.

Regarding `CCN(CC)c1ccc(/C=N/NC(=O)c2cc(C)n[nH]2)c(O)c1`, the inhibition result in [1] and in series [3] was “Active” throughout. Moreover, the intrinsic clearance in series [2] was determined as 47 µL/min/mg; in series [4], 200 µL/min/mg.

As to `CCOc1cccc(/C=N/NC(=O)CSc2nc3ccccc3[nH]2)c1O`, the “growth inhibition (GI)” value in the series on BE(2)-C, in the series with IMR-32, in the series filed under Homo sapiens [6], in the series filed under Homo sapiens [7], with Melanoma cell line [8] and in the series with SH-SY5Y was “Active” each time. In addition, the “growth inhibition (GI)” value in the series on Melanoma cell line [10] and in the series filed under Homo sapiens [11] was “Active” throughout. For the same compound, the inhibition result in series [5] and in series [9] was “Active” each time. In addition, in the series on Melanocyte, the “growth inhibition (GI)” value is “Non-Toxic”.

Take `CCCN(CCC)Cc1c(C(=O)N/N=C/c2ccc(N(CC)CC)cc2O)nnn1-c1nonc1N`: the inhibition result in series [1] and in series [3] was “Active” in each case. In addition, the intrinsic clearance worked out at 130 µL/min/mg in series [2] and 270 µL/min/mg in series [4].

Regarding `CCN(CC)C1CC(=O)N(c2cccc(Cl)c2)C1=O` (configuration not stated), the “growth inhibition (GI)” value with SK-MEL19 and in the series on SK-MEL-103 was “inactive” each time.

Turning to `C=CCc1cccc(/C=N/NC(=O)c2cc(C(C)(C)C)n[nH]2)c1O`, the inhibition result in series [5] and in series [9] was “Active” throughout.

As for `CC(C)(C)c1cc(C(=O)N/N=C/c2ccc(O)cc2O)n(-c2ccccc2)n1`, the “growth inhibition (GI)” value in the series with BE(2)-C, with IMR-32, in the series filed under Homo sapiens [6], in the series filed under Homo sapiens [7], in the series with Melanoma cell line [8] and in the series on SH-SY5Y was “Active” in each case. Further, the “growth inhibition (GI)” value with Melanoma cell line [10] and in the series listed under Homo sapiens [11] was “Active” throughout. Besides, the inhibition entry in [5] and in [9] was “Active” in each case. In addition, the “growth inhibition (GI)” value in the series with Melanocyte was “Non-Toxic”.

On to `O=[N+]([O-])c1ccc(CCNC2CC3CCC2C3)cc1` (configuration not stated), for which the “growth inhibition (GI)” value in the series on SK-MEL19 and with SK-MEL-103 was “inactive” each time.

On to `O=C(N/N=C/c1c(O)ccc2ccccc12)c1cc(C23CC4CC(CC(C4)C2)C3)n[nH]1`, for which the inhibition entry in series [5] and in series [9] was “Active” in each case.

As for `CC(C)=NNc1ncnc2[nH]cnc12`, the “growth inhibition (GI)” value in the series on SK-MEL19 and in the series on SK-MEL-103 was “inactive” throughout.

As for `CCN(CC)c1ccc(/C=N/NC(=O)Cn2c3ccccc3c(=O)c3ccccc32)c(O)c1`, the inhibition result in [1] and in series [3] was “Active” throughout. For the same compound, the intrinsic clearance in series [2] is below 20 µL/min/mg; in [4], 100 µL/min/mg.

With `CN(C)CCCNc1cc(O)c2c(c1O)C(=O)c1ccccc1C2=O`, the “growth inhibition (GI)” value with SK-MEL19 and in the series on SK-MEL-103 was “inactive” each time.

On to `CCN(CC)Cc1c(C(=O)N/N=C/c2ccc(N(CC)CC)cc2O)nnn1-c1nonc1N`, for which the inhibition entry in series [1] and in [3] was “Active” throughout. Moreover, the intrinsic clearance in series [2] was determined as 120 µL/min/mg; in series [4], 300 µL/min/mg.

With `Nc1nonc1-n1nnc(C(=O)N/N=C/c2ccccc2O)c1CN1CCc2ccccc2C1`, the inhibition entry in [1] and in series [3] was “Active” throughout. Also, the remaining at 0 h, 1 µM in series [12] and in series [13] was 100% throughout.

As to `CC(=O)NC(c1ccc2c(c1)OCO2)c1ccc2cccnc2c1O` (configuration not stated), the inhibition entry in [5] and in series [9] was “Active” each time.

`Cc1ccc(/C=N/NC(=O)c2cc(-c3ccccc3)n[nH]2)c(O)c1`: the inhibition result in series [1] and in [3] was “Active” in each case.

Regarding `COc1ccc(OCC(=O)N/N=C\c2cc(O)c(O)c(Br)c2)c(Br)c1`, the inhibition entry in series [5] and in series [9] was “Active” each time.

As to `CCCOc1ccc(N2C(=O)CC(N3CCC(C(=O)O)CC3)C2=O)cc1` (configuration not stated), the “growth inhibition (GI)” value in the series on SK-MEL19 and in the series with SK-MEL-103 was “inactive” in each case.

With `COCc1cc(CN(C)C2CCCCC2)c(O)c2ncccc12`, the “growth inhibition (GI)” value in the series on BE(2)-C, in the series with IMR-32, in the series filed under Homo sapiens [6], in the series listed under Homo sapiens [7], in the series with Melanoma cell line [8] and in the series with SH-SY5Y was “Active” throughout. In addition, the “growth inhibition (GI)” value in the series with Melanoma cell line [10] and in the series filed under Homo sapiens [11] was “Active” each time. Further, the inhibition entry in series [5] and in series [9] was “Active” in each case. In addition, the “growth inhibition (GI)” value in the series on Melanocyte is reported as “Non-Toxic”.
